Each structure is given as a SMILES string. Where only a bound is given, the exact number is not on record here.

The experiment has as its target WD repeat-containing protein 5 (Homo sapiens, UniProt P61964). The experiment in a line: Binding affinity to his sumo tagged N-terminal WDR5 (23 to […] residues) (unknown origin) incubated for 3 hrs by HTRF binding assay. On the technique in general: TR-FRET usually uses a lanthanide donor and a delayed reading to cut background.
Take `NCCCC[C@H](NC(=O)[C@H](Cc1c[nH]c2ccccc12)NC(=O)[C@H](CCC(N)=O)NC(=O)[C@H](CC(N)=O)NC(=O)[C@@H]1CCCN1C(=O)[C@@H](N)CS)C(=O)N[C@@H](CO)C(=O)N[C@@H](Cc1ccc(O)cc1)C(=O)N[C@@H](CS)C(=O)O`: the IC50 (as a rule, the concentration at which inhibition is half-maximal) was greater than 100 µM.

As to `CC(C)C[C@H](NC(=O)[C@H](Cc1ccccc1)NC(=O)[C@@H](N)CS)C(=O)N[C@@H](CC(N)=O)C(=O)N[C@H](C(=O)N[C@@H](CO)C(=O)N[C@@H](CC(N)=O)C(=O)N[C@@H](C)C(=O)N[C@@H](CS)C(=O)O)C(C)C`, the IC50 was greater than 100 µM.

Turning to `CC(C)[C@H](NC(=O)[C@H](CC(=O)O)NC(=O)[C@H](C)NC(=O)[C@H](CCC(=O)O)NC(=O)CNC(=O)[C@H](CCC(=O)O)NC(=O)CNC(=O)[C@@H](N)CS)C(=O)N[C@@H](CS)C(=O)O`, the IC50 was greater than 100 µM.
